{"source": "ChEMBL document CHEMBL1158532", "about": "“A novel kavalactone derivative protects against H2O2-induced PC12 cell death via Nrf2/ARE activation” (Bioorg Med Chem, 2010)", "key": {"[1]": {"tested_on": "PC-12", "test": "Induction of HO-1 protein expression in rat PC12 cells at 10 uM after 24 hrs by Western blot analysis", "format": "functional, cell-based"}, "[2]": {"target": "T1, Nuclear factor erythroid 2-related factor 2 (Rattus norvegicus) (UniProt O54968)", "T1 sequence (whole entry)": "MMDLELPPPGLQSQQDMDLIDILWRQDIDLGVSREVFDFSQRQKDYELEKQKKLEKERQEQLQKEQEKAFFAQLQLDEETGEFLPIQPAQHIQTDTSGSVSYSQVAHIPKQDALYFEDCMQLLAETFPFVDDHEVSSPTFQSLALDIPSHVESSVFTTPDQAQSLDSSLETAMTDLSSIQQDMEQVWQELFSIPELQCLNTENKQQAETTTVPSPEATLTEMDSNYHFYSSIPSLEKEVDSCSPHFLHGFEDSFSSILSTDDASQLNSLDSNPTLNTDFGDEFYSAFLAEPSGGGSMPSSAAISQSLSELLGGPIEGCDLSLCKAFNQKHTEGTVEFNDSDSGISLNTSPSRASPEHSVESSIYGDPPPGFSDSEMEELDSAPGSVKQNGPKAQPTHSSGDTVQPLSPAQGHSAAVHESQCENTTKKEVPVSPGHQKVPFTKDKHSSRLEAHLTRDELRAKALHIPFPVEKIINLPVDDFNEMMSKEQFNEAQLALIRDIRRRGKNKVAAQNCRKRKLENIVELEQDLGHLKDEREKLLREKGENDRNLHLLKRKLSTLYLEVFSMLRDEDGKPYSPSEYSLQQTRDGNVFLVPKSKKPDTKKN", "test": "Activation of Nrf2 in rat PC12 cells at 10 uM after 24 hrs by antioxidant response element-driven luciferase reporter gene assay", "format": "functional, cell-based", "settings": "PC-12"}, "[3]": {"target": "T1, Nuclear factor erythroid 2-related factor 2 (Rattus norvegicus)", "test": "Activation of Nrf2 in rat PC12 cells at 10 uM after 24 hrs by antioxidant response element-driven luciferase reporter gene assay relative to kawain", "format": "functional, cell-based", "settings": "PC-12"}, "[4]": {"tested_on": "PC-12", "test": "Induction of Nrf2 release in rat PC12 cells assessed as increase in intracellular ROS level at 10 uM after 3 hrs by CM-H2-DCFDA staining-based fluorescence assay", "format": "functional, cell-based"}, "[5]": {"tested_on": "PC-12", "test": "Induction of NQO1 protein expression in rat PC12 cells at 10 uM after 24 hrs by Western blot analysis relative to control", "format": "functional"}, "[6]": {"target": "T1, Nuclear factor erythroid 2-related factor 2 (Rattus norvegicus)", "test": "Activation of Nrf2 in rat PC12 cells after 24 hrs by antioxidant response element-driven luciferase reporter gene assay relative to yangonin", "format": "functional, cell-based", "settings": "PC-12"}, "[7]": {"tested_on": "PC-12", "test": "Induction of HO-1 protein expression in rat PC12 cells at 10 uM after 24 hrs by Western blot analysis relative to yangonin", "format": "functional"}, "[8]": {"tested_on": "PC-12", "test": "Induction of HO-1 protein expression in rat PC12 cells at 10 uM after 24 hrs by Western blot analysis relative to control", "format": "functional"}, "[9]": {"tested_on": "PC-12", "test": "Cytotoxicity against rat PC12 cells at 100 uM after 24 hrs by WST8 assay", "format": "cell-based", "settings": "pc-12, 24 h"}, "[10]": {"target": "RAC-alpha serine/threonine-protein kinase (Rattus norvegicus) (UniProt P47196)", "sequence (P47196 whole entry)": "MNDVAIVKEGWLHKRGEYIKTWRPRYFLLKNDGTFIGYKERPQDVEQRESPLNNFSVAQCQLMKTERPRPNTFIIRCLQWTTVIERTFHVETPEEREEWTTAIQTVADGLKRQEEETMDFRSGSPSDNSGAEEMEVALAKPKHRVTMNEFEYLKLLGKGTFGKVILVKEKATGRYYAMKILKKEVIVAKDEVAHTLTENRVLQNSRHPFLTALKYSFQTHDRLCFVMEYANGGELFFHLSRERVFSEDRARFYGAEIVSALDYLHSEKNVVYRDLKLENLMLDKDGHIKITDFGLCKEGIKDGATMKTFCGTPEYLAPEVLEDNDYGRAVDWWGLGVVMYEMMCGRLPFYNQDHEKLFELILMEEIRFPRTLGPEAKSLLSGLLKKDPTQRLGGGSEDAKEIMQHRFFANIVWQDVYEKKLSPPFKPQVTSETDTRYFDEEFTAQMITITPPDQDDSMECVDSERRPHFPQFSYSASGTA", "test": "Increase in Akt phosphorylation in rat PC12 cells at 10 uM after 24 hrs by Western blot analysis", "format": "cell-based", "settings": "PC-12"}, "[11]": {"tested_on": "PC-12", "test": "Induction of HO-1 protein expression in rat PC12 cells at 10 uM after 3 hrs by Western blot analysis in presence of 5 uM p38 inhibitor SB-203580", "format": "functional, cell-based"}, "[12]": {"tested_on": "PC-12", "test": "Neuroprotective activity against H202-induced rat PC12 cell death at 10 uM treated 24 hrs before H202 challenge measured after 24 hrs by WST8 assay", "format": "functional, cell-based"}, "[13]": {"target": "T1, Nuclear factor erythroid 2-related factor 2 (Rattus norvegicus)", "test": "Activation of Nrf2 in rat PC12 cells at 10 uM after 24 hrs by antioxidant response element-driven luciferase reporter gene assay relative to methysticin", "format": "functional, cell-based", "settings": "PC-12"}, "[14]": {"tested_on": "PC-12", "test": "Induction of Nrf2 release in rat PC12 cells assessed as increase in intracellular ROS level at 10 uM after 1 hr by CM-H2-DCFDA staining-based fluorescence assay", "format": "functional, cell-based"}, "[15]": {"tested_on": "PC-12", "test": "Increase in p38 phosphorylation in rat PC12 cells at 10 uM after 5 mins by Western blot analysis", "format": "cell-based"}, "[16]": {"tested_on": "PC-12", "test": "Induction of HO-1 protein expression in rat PC12 cells at 10 uM after 24 hrs by Western blot analysis relative to kawain", "format": "functional"}, "[17]": {"tested_on": "PC-12", "test": "Increase in HO-1 protein expression in rat PC12 cells at 10 uM after 3 hrs by Western blot analysis", "format": "functional, cell-based"}, "[18]": {"tested_on": "PC-12", "test": "Induction of HO-1 protein expression in rat PC12 cells at 10 uM after 24 hrs by Western blot analysis relative to methysticin", "format": "functional"}, "[19]": {"tested_on": "PC-12", "test": "Induction of gamma-GCSc catalytic subunit protein expression in rat PC12 cells at 10 uM after 12 hrs by Western blot analysis", "format": "functional, cell-based"}, "[20]": {"tested_on": "PC-12", "test": "Induction of HO-1 protein expression in rat PC12 cells at 10 uM after 3 hrs by Western blot analysis in presence of 2.5 […] N-acetyl-cysteine", "format": "functional, cell-based"}, "[21]": {"target": "T2, Mitogen-activated protein kinase 1 and 3 (ERK2 and ERK1) (Rattus norvegicus) (UniProt P63086+P21708)", "T2 sequence (P21708 whole entry, looked up)": "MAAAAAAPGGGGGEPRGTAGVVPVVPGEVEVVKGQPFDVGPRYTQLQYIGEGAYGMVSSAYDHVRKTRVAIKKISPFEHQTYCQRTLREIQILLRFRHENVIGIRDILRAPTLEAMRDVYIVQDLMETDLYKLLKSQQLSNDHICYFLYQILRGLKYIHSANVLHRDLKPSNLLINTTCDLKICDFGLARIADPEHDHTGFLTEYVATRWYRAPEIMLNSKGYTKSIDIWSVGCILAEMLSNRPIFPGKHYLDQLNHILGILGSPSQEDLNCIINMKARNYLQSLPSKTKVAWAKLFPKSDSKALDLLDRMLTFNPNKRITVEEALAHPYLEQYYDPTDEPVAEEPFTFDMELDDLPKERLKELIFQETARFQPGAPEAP", "T2 sequence (P63086 whole entry, looked up)": "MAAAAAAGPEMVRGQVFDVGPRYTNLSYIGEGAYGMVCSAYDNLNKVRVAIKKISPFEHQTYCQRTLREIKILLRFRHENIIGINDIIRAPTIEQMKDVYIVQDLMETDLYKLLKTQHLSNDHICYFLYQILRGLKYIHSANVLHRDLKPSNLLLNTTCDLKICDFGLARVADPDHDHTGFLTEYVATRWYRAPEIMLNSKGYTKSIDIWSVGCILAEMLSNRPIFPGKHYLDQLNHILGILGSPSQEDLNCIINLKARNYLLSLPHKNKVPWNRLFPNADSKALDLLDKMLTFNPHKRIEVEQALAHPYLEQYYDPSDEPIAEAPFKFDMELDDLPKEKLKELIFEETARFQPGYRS", "test": "Increase in Erk1/2 phosphorylation in rat PC12 cells at 10 uM after 6 hrs by Western blot analysis", "format": "cell-based", "settings": "PC-12"}, "[22]": {"tested_on": "PC-12", "test": "Cytotoxicity against rat PC12 cells assessed as effect on cellular morphology at 50 to 100 uM after 24 hrs by WST8 assay", "format": "cell-based", "settings": "pc-12, 24 h"}, "[23]": {"target": "T1, Nuclear factor erythroid 2-related factor 2 (Rattus norvegicus)", "test": "Activation of Nrf2 in rat PC12 cells assessed as induction of translocation into nucleus at 10 uM after 24 hrs by Western blot analysis", "format": "functional, cell-based", "settings": "PC-12"}, "[24]": {"tested_on": "PC-12", "test": "Increase in NQO1 protein expression in rat PC12 cells at 10 uM after 3 hrs by Western blot analysis", "format": "functional, cell-based"}, "[25]": {"tested_on": "PC-12", "test": "Increase in HO-1 protein expression in rat PC12 cells at 10 uM treated 24 hrs before H202 challenge measured after 24 hrs by Western blot analysis", "format": "functional, cell-based"}, "[26]": {"tested_on": "PC-12", "test": "Induction of gamma-GCSc catalytic subunit protein expression in rat PC12 cells at 10 uM after 24 hrs by Western blot analysis relative to control", "format": "functional"}, "[27]": {"target": "T2, Mitogen-activated protein kinase 1 and 3 (ERK2 and ERK1) (Rattus norvegicus)", "test": "Increase in Erk1/2 phosphorylation in rat PC12 cells at 10 uM after 5 mins by Western blot analysis", "format": "cell-based", "settings": "PC-12"}, "[28]": {"tested_on": "PC-12", "test": "Induction of HO-1 protein expression in rat PC12 cells at 10 uM after 3 hrs by Western blot analysis in presence of 20 uM MEK1/2 inhibitor PD-98059", "format": "functional, cell-based"}, "[29]": {"target": "T1, Nuclear factor erythroid 2-related factor 2 (Rattus norvegicus)", "test": "Activation of Nrf2 in rat PC12 cells assessed as induction of translocation into nucleus at 10 uM after 30 mins by Western blot analysis", "format": "functional, cell-based", "settings": "PC-12"}, "[30]": {"target": "T1, Nuclear factor erythroid 2-related factor 2 (Rattus norvegicus)", "test": "Activation of Nrf2 in rat PC12 cells at 10 uM after 24 hrs by antioxidant response element-driven luciferase reporter gene assay relative to yangonin", "format": "functional, cell-based", "settings": "PC-12"}}, "note": "The source made the active and inactive calls. The rule behind the calls is not given here.", "data": [{"smiles": "COc1ccc(/C=C/c2cc(OC)cc(=O)o2)cc1", "values": [{"measurement": "Activity", "setting": "[1]", "result": "Active"}, {"measurement": "Activity", "setting": "[2]", "result": "Active"}]}, {"smiles": "COCc1c(OC)cc(=O)oc1/C=C/c1c(Cl)cccc1Cl", "values": [{"measurement": "fold change (FC)", "setting": "[3]", "result": 2}, {"measurement": "Activity", "setting": "[4]", "result": "inactive"}, {"measurement": "fold change (FC)", "setting": "[5]", "result": 1.3}, {"measurement": "Activity", "setting": "[6]", "result": "Dose-dependent effect"}, {"measurement": "fold change (FC)", "setting": "[7]", "result": 3}, {"measurement": "fold change (FC)", "setting": "[8]", "result": 2}, {"measurement": "Activity", "setting": "[9]", "result": "Non-toxic"}, {"measurement": "Activity", "setting": "[10]", "result": "inactive"}, {"measurement": "Activity", "setting": "[11]", "result": "inactive"}, {"measurement": "Activity", "setting": "[12]", "result": "Active"}, {"measurement": "fold change (FC)", "setting": "[13]", "result": 2}, {"measurement": "Activity", "setting": "[14]", "result": "Active"}, {"measurement": "Activity", "setting": "[15]", "result": "Active"}, {"measurement": "fold change (FC)", "setting": "[16]", "result": 3}, {"measurement": "Activity", "setting": "[17]", "result": "Active"}, {"measurement": "fold change (FC)", "setting": "[18]", "result": 3}, {"measurement": "Activity", "setting": "[19]", "result": "Active"}, {"measurement": "Activity", "setting": "[20]", "result": "inactive"}, {"measurement": "Activity", "setting": "[21]", "result": "inactive"}, {"measurement": "Activity", "setting": "[22]", "result": "Toxic"}, {"measurement": "Activity", "setting": "[23]", "result": "Active"}, {"measurement": "Activity", "setting": "[24]", "result": "Active"}, {"measurement": "Activity", "setting": "[25]", "result": "Active"}, {"measurement": "fold change (FC)", "setting": "[26]", "result": 2}, {"measurement": "Activity", "setting": "[27]", "result": "Active"}, {"measurement": "Activity", "setting": "[28]", "result": "inactive"}, {"measurement": "Activity", "setting": "[29]", "result": "Active"}, {"measurement": "fold change (FC)", "setting": "[30]", "result": 2}]}, {"smiles": "COC1=CC(=O)O[C@@H](/C=C/c2ccccc2)C1", "values": [{"measurement": "Activity", "setting": "[1]", "result": "Active"}, {"measurement": "Activity", "setting": "[2]", "result": "Active"}]}, {"smiles": "COC1=CC(=O)O[C@@H](/C=C/c2ccc3c(c2)OCO3)C1", "values": [{"measurement": "Activity", "setting": "[1]", "result": "Active"}, {"measurement": "Activity", "setting": "[2]", "result": "Active"}]}]}
